Measurements from patent US20060069132A1, “Azolecarboxamide herbicides” (priority 2004, published 2006).

Tests used:
barnyardgrass [1] = experiment: Test B pre-/postemergence herbicide test; type: in vivo, Echinochloa crus-galli; conditions: for Barnyardgrass plant response rating (0 to 100 scale) / Plant response rating, Barnyardgrass: 0 = no effect, 100 = complete control, preemergence; for Plant response rating, Barnyardgrass / Barnyardgrass plant response rating: visual rating; for Barnyardgrass plant response rating: postemergence, scale 0 (no effect) to 100 (complete control)
Outline: (§1)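 Seeds were planted and treated preemergence with compounds formulated in a non-phytotoxic solvent mixture containing surfactant, while plants at the 1- to 4-leaf stage (2 to 18 cm) received postemergence sprays. Flooded paddy plants were grown to the 2-leaf stage. After 13 to 15 days in a greenhouse, injury was visually rated 0–100 against untreated controls.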

Surinam grass = experiment: Test B pre-/postemergence herbicide test; type: in vivo, Urochloa decumbens; conditions: for Surinam Grass plant response rating (0 to 100 scale) / Plant response rating, Surinam Grass: 0 = no effect, 100 = complete control, preemergence; for Surinam Grass plant response rating: postemergence
Outline: (§2)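 Visual rating, 0 (no effect) to 100 (complete control), versus untreated controls after 13–15 d in greenhouse. Pre- and postemergence applications (postemergence plants 2–18 cm, 1–4 leaves); flooded paddy arm at 2-leaf stage. Compounds in non-phytotoxic solvent plus surfactant.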

cocklebur = experiment: Test B pre-/postemergence herbicide test; type: in vivo, Xanthium strumarium; conditions: for Cocklebur plant response rating (0 to 100 scale) / Plant response rating, Cocklebur: 0 = no effect, 100 = complete control, preemergence; for Plant response rating, Cocklebur / Cocklebur plant response rating: visual rating; for Cocklebur plant response rating: postemergence, scale 0 (no effect) to 100 (complete control)
Outline: as §1

corn = experiment: Test B pre-/postemergence herbicide test; type: in vivo, Zea mays; conditions: for Corn plant response rating (0 to 100 scale) / Plant response rating, Corn: 0 = no effect, 100 = complete control, preemergence; for Corn plant response rating: postemergence
Outline: as §2

large crabgrass = experiment: Test B pre-/postemergence herbicide test; type: in vivo, Digitaria sanguinalis; conditions: for Crabgrass, Large plant response rating (0 to 100 scale) / Plant response rating, Crabgrass, Large: 0 = no effect, 100 = complete control, preemergence; for Crabgrass, Large plant response rating: postemergence
Outline: as §2

giant foxtail = experiment: Test B pre-/postemergence herbicide test; type: in vivo, Setaria faberi; conditions: for Foxtail, Giant plant response rating (0 to 100 scale) / Plant response rating, Foxtail, Giant: 0 = no effect, 100 = complete control, preemergence; for Foxtail, Giant plant response rating: postemergence
Outline: as §2

lambsquarters = experiment: Test B pre-/postemergence herbicide test; type: in vivo, Chenopodium album; conditions: for Lambsquarters plant response rating: postemergence
Outline: as §2

morningglory = experiment: Test B pre-/postemergence herbicide test; type: in vivo, Ipomoea coccinea; conditions: for Morningglory plant response rating (0 to 100 scale) / Plant response rating, Morningglory: 0 = no effect, 100 = complete control, preemergence; for Morningglory plant response rating: postemergence
Outline: as §1

pigweed = experiment: Test B pre-/postemergence herbicide test; type: in vivo, Amaranthus retroflexus; conditions: for Pigweed plant response rating: postemergence
Outline: as §2

rice [2] = experiment: Test B pre-/postemergence herbicide test; type: in vivo, Oryza sativa; conditions: 0 = no effect, 100 = complete control, preemergence; for Rice plant response rating (0 to 100 scale): 125 g ai/ha; for Plant response rating, Rice: 500 g ai/ha, visual rating
Outline: as §2

velvetleaf = experiment: Test B pre-/postemergence herbicide test; type: in vivo, Abutilon theophrasti; conditions: for Velvetleaf plant response rating: postemergence
Outline: as §2

blackgrass = experiment: Test B postemergence herbicide test; type: in vivo, Alopecurus myosuroides; conditions: postemergence, visual rating, scale 0 (no effect) to 100 (complete control)
Outline: (§3)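 Postemergence plants were sprayed with formulated test chemicals at 2 to 18 cm height (1- to 4-leaf stage); paddy species were grown to the 2-leaf stage. After 13 to 15 days in a greenhouse, injury was rated visually against untreated controls on a 0–100 scale (0 = no effect, 100 = complete control).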

wheat = experiment: Test B postemergence herbicide test; type: in vivo, Triticum aestivum; design: key to Wheat plant response rating: 0 = no effect, 100 = complete control; conditions: postemergence
Outline: as §3

wild oat = experiment: Test B postemergence herbicide test; type: in vivo, Avena fatua; conditions: postemergence
Outline: as §3

rice [3] = experiment: Test B flooded paddy test; type: in vivo, Oryza sativa; conditions: 1000 g ai/ha, scale 0 to 100 (0 no effect, 100 complete control)
Outline: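 Read-out: visual comparison with controls, scored 0 to 100, where 100 means complete control and 0 no effect. Formulated chemicals were applied postemergence to plants 2–18 cm tall (1- to 4-leaf), or to flooded-paddy plants at the 2-leaf stage, then held 13 to 15 days under glass.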

[4] = system: small flower umbrella sedge; experiment: Test B flooded paddy test; type: in vivo, Cyperus difformis; conditions: 1000 g ai/ha, scale 0 to 100 (0 no effect, 100 complete control)
Outline: as §3

ducksalad = experiment: Test B flooded paddy test; type: in vivo, Heteranthera limosa; conditions: 1000 g ai/ha, scale 0 to 100 (0 no effect, 100 complete control)
Outline: as §3

barnyardgrass [5] = experiment: Test B flooded paddy test; type: in vivo, Echinochloa crus-galli; conditions: 1000 g ai/ha, scale 0 to 100 (0 no effect, 100 complete control)
Outline: as §3

[6] = 125 g ai/ha, visual rating, scale 0 (no effect) to 100 (complete control)
[7] = 500 g ai/ha, scale 0 to 100, 0 is no effect, 100 is complete control
[8] = 125 g ai/ha, 0 = no effect, 100 = complete control, preemergence
[9] = 500 g ai/ha, visual rating, 0 = no effect, 100 = complete control, preemergence

CCc1nn(C(C)(C)C)cc1C(=O)Nc1ccc(F)c(C(=O)N(CC)CC)c1 [Compound 240]
Barnyardgrass plant response rating (0 to 100 scale) (barnyardgrass [1]; 125 g ai/ha): 0
Plant response rating, Barnyardgrass (barnyardgrass [1]; 500 g ai/ha): 70
Barnyardgrass plant response rating (barnyardgrass [1]; 125 g ai/ha): 0
Barnyardgrass plant response rating (barnyardgrass [1]; 500 g ai/ha): 0
Surinam Grass plant response rating (0 to 100 scale) (Surinam grass; 125 g ai/ha): 0
Plant response rating, Surinam Grass (Surinam grass; 500 g ai/ha, visual rating): 20
Surinam Grass plant response rating (Surinam grass; [6]): 0
Surinam Grass plant response rating (Surinam grass; [7]): 20
Cocklebur plant response rating (0 to 100 scale) (cocklebur; 125 g ai/ha): 0
Plant response rating, Cocklebur (cocklebur; 500 g ai/ha): 0
Cocklebur plant response rating (cocklebur; 125 g ai/ha): 0
Cocklebur plant response rating (cocklebur; 500 g ai/ha): 20
Corn plant response rating (0 to 100 scale) (corn; 125 g ai/ha): 0
Plant response rating, Corn (corn; 500 g ai/ha, visual rating): 0
Corn plant response rating (corn; [6]): 0
Corn plant response rating (corn; [7]): 10
Crabgrass, Large plant response rating (0 to 100 scale) (large crabgrass; 125 g ai/ha): 20
Plant response rating, Crabgrass, Large (large crabgrass; 500 g ai/ha, visual rating): 100
Crabgrass, Large plant response rating (large crabgrass; [6]): 0
Crabgrass, Large plant response rating (large crabgrass; [7]): 20
Foxtail, Giant plant response rating (0 to 100 scale) (giant foxtail; 125 g ai/ha): 0
Plant response rating, Foxtail, Giant (giant foxtail; 500 g ai/ha, visual rating): 80
Foxtail, Giant plant response rating (giant foxtail; [6]): 0
Foxtail, Giant plant response rating (giant foxtail; [7]): 0
Lambsquarters plant response rating (0 to 100 scale) (lambsquarters; [8]): 0
Plant response rating, Lambsquarters (lambsquarters; [9]): 80
Lambsquarters plant response rating (lambsquarters; [6]): 20
Lambsquarters plant response rating (lambsquarters; [7]): 50
Morningglory plant response rating (0 to 100 scale) (morningglory; 125 g ai/ha): 0
Plant response rating, Morningglory (morningglory; 500 g ai/ha, visual rating): 0
Morningglory plant response rating (morningglory; [6]): 20
Morningglory plant response rating (morningglory; [7]): 30
Pigweed plant response rating (0 to 100 scale) (pigweed; [8]): 0
Plant response rating, Pigweed (pigweed; [9]): 100
Pigweed plant response rating (pigweed; [6]): 0
Pigweed plant response rating (pigweed; [7]): 50
Rice plant response rating (0 to 100 scale) (rice [2]): 0
Plant response rating, Rice (rice [2]): 0
Velvetleaf plant response rating (0 to 100 scale) (velvetleaf; [8]): 0
Velvetleaf plant response rating (velvetleaf; [6]): 0
Velvetleaf plant response rating (velvetleaf; [7]): 10
Blackgrass plant response rating (blackgrass; 125 g ai/ha): 0
Blackgrass plant response rating (blackgrass; 500 g ai/ha): 10
Wheat plant response rating (wheat; [6]): 0
Wheat plant response rating (wheat; [7]): 20
Oat, Wild plant response rating (wild oat; [6]): 0
Oat, Wild plant response rating (wild oat; [7]): 0
Rice plant response rating (rice [3]): 0
Sedge, Umbrella plant response rating [4]: 60
Ducksalad plant response rating (ducksalad): 0
Barnyardgrass plant response rating (barnyardgrass [5]): 0

CCOC(=O)c1cc(NC(=O)c2cc(C(C)(C)C)nn2CC)c(F)cc1F [Compound 250]
Barnyardgrass plant response rating (0 to 100 scale) (barnyardgrass [1]; 125 g ai/ha): 0
Plant response rating, Barnyardgrass (barnyardgrass [1]; 500 g ai/ha): 10
Barnyardgrass plant response rating (barnyardgrass [1]; 125 g ai/ha): 20
Barnyardgrass plant response rating (barnyardgrass [1]; 500 g ai/ha): 20
Surinam Grass plant response rating (0 to 100 scale) (Surinam grass; 125 g ai/ha): 10
Plant response rating, Surinam Grass (Surinam grass; 500 g ai/ha, visual rating): 30
Surinam Grass plant response rating (Surinam grass; [6]): 10
Surinam Grass plant response rating (Surinam grass; [7]): 20
Cocklebur plant response rating (0 to 100 scale) (cocklebur; 125 g ai/ha): 0
Plant response rating, Cocklebur (cocklebur; 500 g ai/ha): 0
Cocklebur plant response rating (cocklebur; 125 g ai/ha): 30
Cocklebur plant response rating (cocklebur; 500 g ai/ha): 40
Corn plant response rating (0 to 100 scale) (corn; 125 g ai/ha): 0
Plant response rating, Corn (corn; 500 g ai/ha, visual rating): 0
Corn plant response rating (corn; [6]): 20
Corn plant response rating (corn; [7]): 30
Crabgrass, Large plant response rating (0 to 100 scale) (large crabgrass; 125 g ai/ha): 0
Plant response rating, Crabgrass, Large (large crabgrass; 500 g ai/ha, visual rating): 10
Crabgrass, Large plant response rating (large crabgrass; [6]): 20
Crabgrass, Large plant response rating (large crabgrass; [7]): 20
Foxtail, Giant plant response rating (0 to 100 scale) (giant foxtail; 125 g ai/ha): 0
Plant response rating, Foxtail, Giant (giant foxtail; 500 g ai/ha, visual rating): 10
Foxtail, Giant plant response rating (giant foxtail; [6]): 20
Foxtail, Giant plant response rating (giant foxtail; [7]): 30
Lambsquarters plant response rating (0 to 100 scale) (lambsquarters; [8]): 0
Lambsquarters plant response rating (lambsquarters; [6]): 0
Lambsquarters plant response rating (lambsquarters; [7]): 40
Morningglory plant response rating (0 to 100 scale) (morningglory; 125 g ai/ha): 0
Plant response rating, Morningglory (morningglory; 500 g ai/ha, visual rating): 0
Morningglory plant response rating (morningglory; [6]): 20
Morningglory plant response rating (morningglory; [7]): 30
Pigweed plant response rating (0 to 100 scale) (pigweed; [8]): 0
Pigweed plant response rating (pigweed; [6]): 30
Pigweed plant response rating (pigweed; [7]): 70
Rice plant response rating (0 to 100 scale) (rice [2]): 0
Plant response rating, Rice (rice [2]): 10
Velvetleaf plant response rating (0 to 100 scale) (velvetleaf; [8]): 0
Plant response rating, Velvetleaf (velvetleaf; [9]): 20
Velvetleaf plant response rating (velvetleaf; [6]): 20
Velvetleaf plant response rating (velvetleaf; [7]): 30
Blackgrass plant response rating (blackgrass; 125 g ai/ha): 10
Blackgrass plant response rating (blackgrass; 500 g ai/ha): 40
Wheat plant response rating (wheat; [6]): 20
Wheat plant response rating (wheat; [7]): 40
Oat, Wild plant response rating (wild oat; [6]): 20
Oat, Wild plant response rating (wild oat; [7]): 40
Rice plant response rating (rice [3]): 50
Sedge, Umbrella plant response rating [4]: 70
Ducksalad plant response rating (ducksalad): 40
Barnyardgrass plant response rating (barnyardgrass [5]): 0
